Values of other authors as cited in patent publication US20240299268A1, “A COMPOSITION FOR CARING FOR KERATIN MATERIALS” (L'OREAL, priority 2021, published 2024).
Like-named read-outs stand apart in the source and are kept apart here.

time until decarboxylation (loss in stability, unpleasant odor) when contacting with water (content of ferulic acid no less than 1 wt. %): 30 days
time until decarboxylation (loss in stability, unpleasant odor) when contacting with water (content of ferulic acid no less than 1.5 wt. %): 15 days
time until decarboxylation (loss in stability, unpleasant odor) when contacting with water (content of ferulic acid no less than 1.9 wt. %): 7 days
SMILES: COc1cc(/C=C/C(=O)O)ccc1O [Ferulic acid, 4-Hydroxy-3-methoxycinnamic acid]
